The experiment has as its system HepG2 (L1.3 5'UTR promoter firefly luciferase reporter). As to the kind of experiment: L1 promoter activity (FLuc/RLuc) relative to DMSO vehicle control (% of control); higher = stronger L1 promoter activation.
Setting [1] is: concentration (uM unless unit written): 50, treatment time: 6 h.
Where [2] appears, read: concentration (uM unless unit written): 100, treatment time: 6 h.
The mark [3] stands for this setting: concentration (uM unless unit written): 250, treatment time: 6 h.
Where [4] appears, read: concentration (uM unless unit written): 250, treatment time: 24 h.
[5] abbreviates: concentration (uM unless unit written): 500, treatment time: 6 h.
The mark [6] stands for this setting: concentration (uM unless unit written): 500, treatment time: 24 h.

Consider 9 compounds from the supplement of paper PMC3770661.

± gives the uncertainty stated by the source.

Turning to `C=C[C@@]1(C)CC(=O)[C@]2(O)[C@@]3(C)[C@@H](O)CCC(C)(C)[C@@H]3[C@H](O)[C@H](OC(C)=O)[C@@]2(C)O1` [Forskolin], the L1 promoter activity was 88.6 ± 4.5 (concentration (uM unless unit written): 25, treatment time: 6 h); 59.9 ± 9 (concentration (uM unless unit written): 25, treatment time: 24 h); 85.9 ± 4 under setting [1]; 59 ± 6.1 (concentration (uM unless unit written): 50, treatment time: 24 h); 89.2 ± 7.9 under setting [2]; 52 ± 4.8 (concentration (uM unless unit written): 100, treatment time: 24 h).

For the compound `CC(=O)N[C@H]1[C@@H](O[C@@H]2O[C@H](CC(O)[C@H]3O[C@@H](n4ccc(=O)[nH]c4=O)[C@H](O)[C@@H]3O)[C@H](O)[C@H](O)[C@H]2NC(=O)/C=C/CC(C)C)O[C@H](CO)[C@@H](N)[C@@H]1O` (some centres not stated) [Tunicamycin], the L1 promoter activity reads like this: (concentration (uM unless unit written): 5 μg/mL, treatment time: 6 h) 76.6 ± 8.1; (concentration (uM unless unit written): 5 μg/mL, treatment time: 24 h) 73.3 ± 3.2; (concentration (uM unless unit written): 10 μg/mL, treatment time: 6 h) 66.6 ± 7.3; (concentration (uM unless unit written): 10 μg/mL, treatment time: 24 h) 84.5 ± 11; (concentration (uM unless unit written): 20 μg/mL, treatment time: 6 h) 63.5 ± 3.2; (concentration (uM unless unit written): 20 μg/mL, treatment time: 24 h) 72.1 ± 7.7. This compound registered an L1 promoter activity (concentration (uM unless unit written): 40 μg/mL, treatment time: 24 h) of 75.8 ± 6.2.

In the case of `OC(Cn1cncn1)(Cn1cncn1)c1ccc(F)cc1F` [Fluconazole], the L1 promoter activity (concentration (uM unless unit written): 1250, treatment time: 6 h) was determined as 108 ± 11; the L1 promoter activity (concentration (uM unless unit written): 1250, treatment time: 24 h) was 99.5 ± 7.4; the L1 promoter activity (concentration (uM unless unit written): 2500, treatment time: 6 h) amounted to 99.2 ± 6.7; the L1 promoter activity (concentration (uM unless unit written): 2500, treatment time: 24 h) turned out to be 92.7 ± 13.

Consider `CC(=O)S[C@@H]1CC2=CC(=O)CC[C@]2(C)[C@H]2CC[C@@]3(C)[C@@H](CC[C@@]34CCC(=O)O4)[C@H]12` [Spironolactone], for which the L1 promoter activity (concentration (uM unless unit written): 1, treatment time: 6 h) was determined as 104 ± 9.8; the L1 promoter activity (concentration (uM unless unit written): 1, treatment time: 24 h) came to 89.3 ± 3.8; the L1 promoter activity (concentration (uM unless unit written): 3, treatment time: 6 h) amounted to 97.8 ± 9.3; the L1 promoter activity (concentration (uM unless unit written): 3, treatment time: 24 h) is 100 ± 8.9; the L1 promoter activity (concentration (uM unless unit written): 30, treatment time: 6 h) came out at 88.5 ± 9.3; the L1 promoter activity (concentration (uM unless unit written): 30, treatment time: 24 h) was 111 ± 12.

Compound `C=C(C)[C@H]1Cc2c(ccc3c2O[C@@H]2COc4cc(OC)c(OC)cc4[C@@H]2C3=O)O1` [Rotenone] yielded an L1 promoter activity (concentration (uM unless unit written): 0.075, treatment time: 6 h) of 113 ± 28; an L1 promoter activity (concentration (uM unless unit written): 0.075, treatment time: 24 h) of 90.8 ± 3.4; an L1 promoter activity (concentration (uM unless unit written): 10, treatment time: 6 h) of 97.8 ± 8.2; an L1 promoter activity under setting [1] of 93.6 ± 11.

`COS(C)(=O)=O` [Methyl methanesulfonate] returned an L1 promoter activity (concentration (uM unless unit written): 125, treatment time: 6 h) of 113 ± 11; an L1 promoter activity (concentration (uM unless unit written): 125, treatment time: 24 h) of 90.8 ± 4.2; an L1 promoter activity under setting [3] of 107 ± 15; an L1 promoter activity under setting [4] of 88.2 ± 13; an L1 promoter activity under setting [5] of 100 ± 12; an L1 promoter activity under setting [6] of 83.2 ± 4.5.

In the case of `CC(C)Cc1ccc(C(C)C(=O)O)cc1` (configuration not stated) [Ibuprofen], the L1 promoter activity by setting is: under setting [3], 118 ± 8.4; under setting [4], 90.8 ± 3.5; under setting [5], 99.7 ± 9.8; under setting [6], 89.6 ± 10; (concentration (uM unless unit written): 1000, treatment time: 6 h) 97.2 ± 8.2; (concentration (uM unless unit written): 1000, treatment time: 24 h) 74.9 ± 7.6.

`CS(=O)(=O)OCCCCOS(C)(=O)=O` [Busulfan]: the L1 promoter activity reads like this: under setting [2], 111 ± 33; under setting [3], 119 ± 29; under setting [5], 131 ± 39; under setting [6], 122 ± 39.

Take `CC[C@H]1/C=C/C=C/C[C@@H](C)[C@H](O)[C@@](C)(O)C(=O)[C@@H](C)[C@H](O)[C@@H](C)C(=O)[C@@H](C)[C@H](O)[C@@H](C)/C=C/C(=O)O[C@@H]2[C@H](C)[C@H](CC1)O[C@]1(CC[C@H](C)[C@H](C[C@@H](C)O)O1)[C@H]2C` [Oligomycin]: the L1 promoter activity was 89.6 ± 5.8 (concentration (uM unless unit written): 0.75, treatment time: 6 h); 82.1 ± 19 (concentration (uM unless unit written): 0.75, treatment time: 24 h); 82.5 ± 15 (concentration (uM unless unit written): 1.5, treatment time: 6 h); 77.2 ± 1.9 (concentration (uM unless unit written): 1.5, treatment time: 24 h).
